Source: patent publication US9688627B2, “Lactam compounds as EP4 receptor-selective agonists for use in the treatment of EP4-mediated diseases and conditions” (Cayman Chemical Company, Inc., priority 2013, dated 2017)

Columns and labels:
calvarial bone defect = assay: Rat calvarial defect model; type: in vivo, female Sprague Dawley rats; conditions: 3 mg/ml in calcium phosphate cement/demineralized bone matrix, eight weeks, values only in FIG. 1
Experimental: The rat calvarial defect model is a widely used model through which the ability of a treatment agent to induce bone formation is assessed (Aghaloo et al., The effect of NELL1 and bone morphogenetic protein-2 on calvarial bone regeneration, J. Oral Maxillofac. Surg., 2010, 68, 300-308; Mark et al., Repair of calvarial nonunions by osteogenin, a bone-inductive protein, Plast. Reconstr. Surg., 1990, 86, 623-30). Bone defects are created by removal of bone from the cranium of female Sprague Dawley rats by a bone trephine (cranial defect). Cranial defects are 2.6 mm in diameter and the cranium approximately 1 mm thick. A matrix of approximately 2 mm thickness is applied to the defect. Thus the dosing volume for each defect is calculated as π*r^2*matrix thickness=3.14*1.3^2*2=10.61 μl and rounded to 11 μl for purposes of dose calculation. Example 2E is delivered set inside calcium phosphate cement that, after loading with drug and setting, is ground to a fine powder and suspended in demineralized bone matrix at a ratio of 1:8 (weight/volume). Example 2E is tested at one dose of 3 mg/ml with five rats in the test group. […] The area measured at eight weeks was compared to the area of the original defect and the degree of repair calculated by the following formula: (original area-current area)/original area*100 The mean repair for each group after eight weeks of treatment is shown in the FIG. 1.

rat EP4 receptor [1] = molecular target: T1, rat EP4 receptor (Rattus norvegicus, UniProt P43114); assay: SEAP activity assay on EP4 STEP plate; type: cell-based; conditions: SEAP luminescence, 6-8 hours of stimulation; read-out: STEP cell functional assay EC50 SEAP/EP4
T1 construct: cells seeded on STEP plates
T1 sequence (P43114 whole entry): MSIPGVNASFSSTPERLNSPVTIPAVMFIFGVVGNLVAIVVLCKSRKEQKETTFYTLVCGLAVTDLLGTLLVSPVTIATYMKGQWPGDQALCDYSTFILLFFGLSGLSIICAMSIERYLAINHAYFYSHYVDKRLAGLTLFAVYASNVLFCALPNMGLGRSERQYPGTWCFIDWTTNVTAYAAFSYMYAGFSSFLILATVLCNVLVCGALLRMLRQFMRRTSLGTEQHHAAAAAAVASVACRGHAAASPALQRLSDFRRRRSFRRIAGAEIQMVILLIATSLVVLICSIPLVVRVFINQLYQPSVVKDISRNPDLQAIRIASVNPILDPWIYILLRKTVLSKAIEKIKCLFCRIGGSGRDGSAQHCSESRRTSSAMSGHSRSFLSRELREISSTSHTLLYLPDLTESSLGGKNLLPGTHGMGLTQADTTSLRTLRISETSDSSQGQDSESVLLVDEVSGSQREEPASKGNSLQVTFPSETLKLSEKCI
Text: (§1) 2. […] In addition each concentration had triplicates. […] 4. […] Cover the plate with the lid. […] 6. […] 7. […] 8.

rat EP4 receptor [2] = molecular target: T1, rat EP4 receptor; assay: cAMP level assay on EP4 STEP plate; type: cell-based; conditions: cAMP by ELISA, 30 minutes, 500 μM IBMX; read-out: STEP cell functional assay EC50 cAMP/EP4
Text: Functional Cellular Assays (STEP Plate Format)
Procedure of cAMP Assay for EP2/EP4 Agonist
3. […] In addition each concentration had triplicates.
6. Aspirate the supernatant.

[3] = molecular target: T2, Human Prostanoid EP4 Receptor (Homo sapiens, UniProt P35408); assay: Radioligand binding assay, agonist site of human prostanoid EP4 receptor in transfected HEK-293 cells; conditions: for IC50: read-out: hEP4 receptor binding IC50; for Ki: read-out: hEP4 receptor binding Ki; for inhibition at 0.1 µM: 2 h, pH 6, read-out: hEP4 receptor binding, % @ 100 nM, @ 100 nM test compound
T2 construct: expressed in transfected cells; host or cells: HEK-293 cells (cell membrane homogenates)
T2 sequence (P35408 whole entry): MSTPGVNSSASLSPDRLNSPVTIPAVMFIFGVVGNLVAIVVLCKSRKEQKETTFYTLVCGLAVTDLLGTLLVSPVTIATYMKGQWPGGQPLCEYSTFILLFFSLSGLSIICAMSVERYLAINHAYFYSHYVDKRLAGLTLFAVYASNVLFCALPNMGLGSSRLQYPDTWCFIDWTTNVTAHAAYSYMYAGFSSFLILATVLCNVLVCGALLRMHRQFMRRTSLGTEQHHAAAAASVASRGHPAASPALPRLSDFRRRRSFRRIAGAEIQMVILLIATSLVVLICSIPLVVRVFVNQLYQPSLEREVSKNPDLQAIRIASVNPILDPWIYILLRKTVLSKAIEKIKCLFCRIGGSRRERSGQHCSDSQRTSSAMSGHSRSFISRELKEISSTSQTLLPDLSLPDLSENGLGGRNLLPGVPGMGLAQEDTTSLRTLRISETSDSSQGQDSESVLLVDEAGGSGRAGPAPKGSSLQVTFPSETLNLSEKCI
Experimental: Radioligand Binding Assay for the Evaluation of the Affinity of Compounds for the Agonist Site of the Human Prostanoid EP4 Receptor in Transfected HEK-293 Cells
Following incubation, the samples are filtered rapidly under vacuum through glass fiber filters (GF/B, Packard) presoaked with 0.3% PEI and rinsed several times with ice-cold 50 mM Tris-HCl using a 96-sample cell harvester (Unifilter, Packard). The filters are dried then counted for radioactivity in a scintillation counter (Topcount, Packard) using a scintillation cocktail (Microscint 0, Packard).

rat EP2 receptor = molecular target: T3, rat EP2 receptor (Rattus norvegicus, UniProt Q62928); assay: SEAP activity assay on EP2 STEP plate; type: cell-based; conditions: SEAP luminescence, 6-8 hours of stimulation; read-out: STEP cell functional assay EC50 SEAP/EP2
T3 construct: cells seeded on STEP plates
T3 sequence (Q62928 whole entry): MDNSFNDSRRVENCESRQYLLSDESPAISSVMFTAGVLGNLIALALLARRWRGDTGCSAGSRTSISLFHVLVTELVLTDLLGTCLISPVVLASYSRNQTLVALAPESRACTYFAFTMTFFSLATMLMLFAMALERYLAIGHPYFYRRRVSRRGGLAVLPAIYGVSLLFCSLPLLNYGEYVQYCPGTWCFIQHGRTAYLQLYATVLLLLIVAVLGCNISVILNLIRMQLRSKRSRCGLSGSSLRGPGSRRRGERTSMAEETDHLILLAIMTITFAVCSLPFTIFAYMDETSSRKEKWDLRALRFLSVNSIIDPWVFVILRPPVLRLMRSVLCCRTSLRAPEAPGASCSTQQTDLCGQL
Text: as §1

Row | Compound | EC50 (rat EP4 receptor [1]) | EC50 (rat EP4 receptor [2]) | IC50 [3] | Ki [3] | EC50 (rat EP2 receptor) | melting point | inhibition at 0.1 µM [3] | Healing of a calvarial bone defect (calvarial bone defect)
1 | COC(=O)CCCCCCN1C(=O)CC[C@@H]1/C=C/[C@H](O)CCC#Cc1ccccc1 (single isomer, unassigned) [Example 5B] | 41.5 nM | – | – | – | > 5000 nM | – | – | –
2 | CCC#C[C@H](O)/C=C/[C@H]1CCC(=O)N1CCCCCCC(=O)OC (single isomer, unassigned) [Example 6A] | 6.71 nM | – | – | – | > 3000 nM | – | – | –
3 | CC#CCC(C)[C@@H](O)/C=C/[C@H]1CCC(=O)N1Cc1ccc(CC(=O)O)cc1 (mixture of isomers) [Example 12D, 2-(4-(((2R)-2-((3R,4R/S,E)-3-hydroxy-4-methyloct-1-en-6-yn-1-yl)-5-oxopyrrolidin-1-yl)methyl)phenyl)acetic acid] | > 10000 nM | – | – | – | > 10000 nM | – | – | –
4 | CCC#CCC(C)[C@H](O)/C=C/[C@H]1CCC(=O)N1C/C=C\c1ccc(C(=O)O)s1 (mixture of isomers) [Example 15C, 5-((Z)-3-((2R)-2-((3S,4R/S,E)-3-hydroxy-4-methylnon-1-en-6-yn-1-yl)-5-oxopyrrolidin-1-yl)prop-1-en-1-yl)thiophene-2-carboxylic acid] | 947 nM | – | – | – | > 10000 nM | – | – | –
5 | CCCC#CCC(C)[C@H](O)/C=C/[C@H]1CCC(=O)N1CCCCCCC(=O)OC (mixture of isomers) [Example 3A, methyl 7-((2R)-2-((3S,4R/S,E)-3-hydroxy-4-methyldec-1-en-6-yn-1-yl)-5-oxopyrrolidin-1-yl)heptanoate] | 8.64 nM | – | – | – | 2490 nM | – | – | –
6 | CC(CC#Cc1ccccc1)[C@H](O)/C=C/[C@H]1CCC(=O)N1C/C=C\c1ccc(C(=O)O)s1 (mixture of isomers) [Example 16C, 5-((Z)-3-((2R)-2-((3S,4R/S,E)-3-hydroxy-4-methyl-7-phenylhept-1-en-6-yn-1-yl)-5-oxopyrrolidin-1-yl)prop-1-en-1-yl)thiophene-2-carboxylic acid] | 67.2 nM | – | – | – | > 10000 nM | – | – | –
7 | COC(=O)CCCCCCN1C(=O)CC[C@@H]1/C=C/[C@@H](O)CCC#Cc1ccccc1 (single isomer, unassigned) [Example 5A] | 77.7 nM | – | – | – | > 10000 nM | – | – | –
8 | O=C(O)CCCCCCN1C(=O)CC[C@@H]1/C=C/[C@@H](O)C#Cc1ccccc1 [Example 7C, 7-((R)-2-((R,E)-3-hydroxy-5-phenylpent-1-en-4-yn-1-yl)-5-oxopyrrolidin-1-yl)heptanoic acid] | 22.3 nM | – | – | – | > 10000 nM | – | – | –

Molecules with a lower EC50 (rat EP4 receptor [1]), results first:

Row | EC50 (rat EP4 receptor [1]) | EC50 (rat EP4 receptor [2]) | IC50 [3] | Ki [3] | EC50 (rat EP2 receptor) | melting point | inhibition at 0.1 µM [3] | Compound | Healing of a calvarial bone defect (calvarial bone defect)
9 | 0.19 ± 0.07 nM | 0.96 ± 0.46 nM | 3 nM | 1.1 nM | – | – | – | CCC#CC[C@H](C)[C@H](O)/C=C/[C@H]1CCC(=O)N1CCCCCCC(=O)O [Example 2E, 7-((R)-2-((3S,4S,E)-3-hydroxy-4-methylnon-1-en-6-yn-1-yl)-5-oxopyrrolidin-1-yl)heptanoic acid] | Accelerated Healing
10 | 0.02 nM | 0.31 nM | 0.67 nM | 0.25 nM | – | – | – | CCC#CC[C@H](C)[C@H](O)/C=C/[C@H]1CCC(=O)N1CCc1ccc(C(=O)O)cc1 [Example 9C, 4-(2-((R)-2-((3S,4S,E)-3-hydroxy-4-methylnon-1-en-6-yn-1-yl)-5-oxopyrrolidin-1-yl)ethyl)benzoic acid] | –
11 | 0.064 nM | – | 4 nM | 1.5 nM | 905 nM | – | – | CCC#CCC(C)[C@H](O)/C=C/[C@H]1CCC(=O)N1CCCCCCC(=O)O (mixture of isomers) [Example 2C, 7-((2R)-2-((3S,4R/S,E)-3-hydroxy-4-methylnon-1-en-6-yn-1-yl)-5-oxopyrrolidin-1-yl)heptanoic acid] | –
12 | 0.19 nM | – | 1.3 nM | 0.47 nM | 120 nM | – | – | CC#CCC(C)[C@H](O)/C=C/[C@H]1CCC(=O)N1CCc1ccc(C(=O)O)cc1 (mixture of isomers) [Example 8C, 4-(2-((2R)-2-((3S,4R/S,E)-3-hydroxy-4-methyloct-1-en-6-yn-1-yl)-5-oxopyrrolidin-1-yl)ethyl)benzoic acid] | –
13 | 0.57 nM | 2.98 nM | 3.9 nM | 1.5 nM | 800 nM | 113 to 114 °C | – | CC#CC[C@H](C)[C@H](O)/C=C/[C@H]1CCC(=O)N1CCCCCCC(=O)O [Example 1E, 7-((R)-2-((3S,4S,E)-3-hydroxy-4-methyloct-1-en-6-yn-1-yl)-5-oxopyrrolidin-1-yl)heptanoic acid] | –
14 | 4.82 nM | – | – | – | > 10000 nM | – | 11% | CC#CCC(C)[C@@H](O)/C=C/[C@H]1CCC(=O)N1CCCCCCC(=O)O (mixture of isomers) [Example 1D, 7-((2R)-2-((3R,4R/S,E)-3-hydroxy-4-methyloct-1-en-6-yn-1-yl)-5-oxopyrrolidin-1-yl)heptanoic acid] | –
15 | 0.67 nM | – | – | – | 760 nM | – | 86% | CC#CCC(C)[C@H](O)/C=C/[C@H]1CCC(=O)N1CCCCCCC(=O)O (mixture of isomers) [Example 1C, 7-((2R)-2-((3S,4R/S,E)-3-hydroxy-4-methyloct-1-en-6-yn-1-yl)-5-oxopyrrolidin-1-yl)heptanoic acid] | –
16 | 0.091 nM | – | – | – | > 10000 nM | – | – | CCC#CCC(C)[C@H](O)/C=C/[C@H]1CCC(=O)N1CCCc1ccc(C(=O)O)s1 (stereo partly drawn) [Example 17F, 5-(3-((R)-2-((3S,E)-3-hydroxy-4-methylnon-1-en-6-yn-1-yl)-5-oxopyrrolidin-1-yl)propyl)thiophene-2-carboxylic acid] | –
17 | 5.79 nM | – | 18 nM | 6.9 nM | 184 nM | 100 to 101 °C | – | CC#CC[C@@H](C)[C@H](O)/C=C/[C@H]1CCC(=O)N1CCCCCCC(=O)O [Example 1F, 7-((R)-2-((3S,4R,E)-3-hydroxy-4-methyloct-1-en-6-yn-1-yl)-5-oxopyrrolidin-1-yl)heptanoic acid] | –
18 | 0.32 nM | 1.54 nM | 6.1 nM | 2.3 nM | 5300 nM | – | – | CCC#CC[C@H](C)[C@H](O)/C=C/[C@H]1CCC(=O)N1CCCc1ccc(C(=O)O)s1 [Example 17D, 5-(3-((R)-2-((3S,4S,E)-3-hydroxy-4-methylnon-1-en-6-yn-1-yl)-5-oxopyrrolidin-1-yl)propyl)thiophene-2-carboxylic acid] | –
19 | 0.085 nM | – | – | – | 2260 nM | – | – | CCCC#CCC(C)[C@H](O)/C=C/[C@H]1CCC(=O)N1CCCCCCC(=O)O (mixture of isomers) [Example 3C, 7-((2R)-2-((3S,4R/S,E)-3-hydroxy-4-methyldec-1-en-6-yn-1-yl)-5-oxopyrrolidin-1-yl)heptanoic acid] | –
